Measurements taken from patent publication US20230219986A1, “NOVEL AMINOPYRIMIDINE EGFR INHIBITOR” (QILU PHARMACEUTICAL CO., LTD., priority 2020, published 2023).
Like-named read-outs stand apart in the source and are kept apart here.

How the values were obtained:
[1] = biological target: T1, L858R/T790M/C797S triple mutant EGFR (Homo sapiens, UniProt P00533, C797S/L858R/T790M); test: Enzymology experiment in vitro (HTRF/FRET kinase activity), L858R/T790M/C797S triple mutant EGFR; type: biochemical; settings: HTRF KinEASE-TK, read-out: EGFR (L858R/T790M/C797S) IC50
T1 construct: purchased Signalchem
Procedure: (§1) 1. Experimental Materials
(§2) HTRF KinEASE-TK kit detection reagent, purchased from Cisbio
(§3) 1) 10 nL of gradient diluted compound was transferred into a 384-well experimental plate using Echo 550 (Labcyte).
(§4) 2) 5 μL of 2×EGFR enzyme solution was added to the 384-well experimental plate and incubated at room temperature for 10 minutes.
(§5) 3) 5 μL of 2× substrate solution containing polypeptide and ATP was added to the 384-well experimental plate and incubated at room temperature for 40 minutes.
(§6) 4) 10 μL of detection solution containing EDTA, XL665-labeled streptavidin and Eu^3+-labeled antibody was added thereto and incubated at room temperature for 1 hour.

[2] = biological target: Ba/F3 De119/T790M/C797S EGFR triple mutant cell line (Homo sapiens, UniProt P00533, T790M/C797S, cells depend on it, form not given); test: Cell proliferation inhibition experiment (CellTiter-Glo), Ba/F3 De119/T790M/C797S; type: cell-based; settings: Ba/F3 Del19/T790M/C797S EGFR triple mutant cells, 72 hours, Cell Titer-Glo; read-out: Ba/F3 (Del19/T790M/C797S) IC50
Procedure: (§7) 3) 30 nL of gradient diluted compound was transferred into the 384-well experimental plate using Echo 550 (Labcyte) at a DMSO final concentration of 0.1%, and the culture plate was incubated in a cell incubator for 72 hours (37° C., 5% CO2).
(§8) 4) 30 μL of Cell Titer-Glo reagent was added to each well and left for 30 minutes at room temperature and protected from light.
(§9) 5) Envision microplate reader (PerkinElmer) detected chemiluminescence signals.
(§10) 6) GraphPad Prism 8 software was used for data analysis to obtain the IC50 of the compounds of the present disclosure and the positive control.

[3] = biological target: T2, wild-type EGFR (Homo sapiens, UniProt P00533); test: Enzymology experiment in vitro (HTRF/FRET kinase activity), wild-type EGFR; type: biochemical; settings: HTRF KinEASE-TK, read-out: EGFR (WT) IC50
T2 construct: purchased Signalchem
Procedure: as §1, §2, §3, §4, §5, §6

[4] = biological target: Ba/F3 L858R/T790M/C797S EGFR triple mutant cell line (Homo sapiens, UniProt P00533, T790M/C797S/L858R, cells depend on it); test: Cell proliferation inhibition experiment (CellTiter-Glo), Ba/F3 L858R/T790M/C797S; type: cell-based; settings: 72 hours, Cell Titer-Glo, read-out: Ba/F3 (L858R/T790M/C797S) IC50
Procedure: as §7, §8, §9, §10

[5] = system: EGFR wild-type cell line A431; test: Cell proliferation inhibition experiment (CellTiter-Glo), A431; type: cell-based; settings: A431 cells, Cell Titer-Glo, read-out: A431 EGFR WT IC50
Procedure: A431 cells, purchased from ATCC.
1) A431 cells were inoculated in a 384-well culture plate at a density of 800 cells per well, 30 μL per well, placed in a cell incubator, and cultured for 24 hours (37° C., 5% CO2).
as §7, §8, §9, §10

Chain of Ba/F3 L858R/T790M/C797S EGFR triple mutant cell line (P00533 whole entry T790M/C797S/L858R): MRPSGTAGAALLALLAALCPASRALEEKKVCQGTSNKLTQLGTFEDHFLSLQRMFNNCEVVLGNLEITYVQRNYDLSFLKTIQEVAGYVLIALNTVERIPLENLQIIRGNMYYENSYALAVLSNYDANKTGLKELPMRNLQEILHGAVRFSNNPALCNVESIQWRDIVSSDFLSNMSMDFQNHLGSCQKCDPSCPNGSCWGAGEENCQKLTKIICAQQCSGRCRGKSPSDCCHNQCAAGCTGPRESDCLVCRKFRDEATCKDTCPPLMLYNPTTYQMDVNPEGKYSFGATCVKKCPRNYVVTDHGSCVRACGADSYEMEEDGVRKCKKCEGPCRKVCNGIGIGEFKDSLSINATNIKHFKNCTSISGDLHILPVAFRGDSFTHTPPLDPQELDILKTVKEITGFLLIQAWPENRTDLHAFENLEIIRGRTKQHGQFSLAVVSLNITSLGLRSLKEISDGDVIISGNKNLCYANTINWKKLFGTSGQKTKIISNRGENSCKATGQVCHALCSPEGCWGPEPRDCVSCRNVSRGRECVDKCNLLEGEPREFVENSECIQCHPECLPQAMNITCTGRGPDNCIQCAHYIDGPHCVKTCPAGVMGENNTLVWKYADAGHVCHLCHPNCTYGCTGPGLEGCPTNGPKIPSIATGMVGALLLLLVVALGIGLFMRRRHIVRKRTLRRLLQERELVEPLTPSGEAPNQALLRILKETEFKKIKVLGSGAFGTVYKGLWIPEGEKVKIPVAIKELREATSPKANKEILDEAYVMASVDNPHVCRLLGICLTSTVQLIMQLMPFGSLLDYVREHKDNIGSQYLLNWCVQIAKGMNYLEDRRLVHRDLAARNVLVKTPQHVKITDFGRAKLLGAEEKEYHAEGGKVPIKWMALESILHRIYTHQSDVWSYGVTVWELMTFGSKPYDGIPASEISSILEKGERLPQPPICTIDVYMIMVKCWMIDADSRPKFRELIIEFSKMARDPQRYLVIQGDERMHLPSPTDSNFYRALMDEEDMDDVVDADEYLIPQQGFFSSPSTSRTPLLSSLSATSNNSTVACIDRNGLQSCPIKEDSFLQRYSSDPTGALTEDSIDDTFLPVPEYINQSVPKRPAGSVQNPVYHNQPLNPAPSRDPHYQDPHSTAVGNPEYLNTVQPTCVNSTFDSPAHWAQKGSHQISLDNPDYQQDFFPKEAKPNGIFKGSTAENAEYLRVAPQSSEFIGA
T2 sequence (P00533 25-1210): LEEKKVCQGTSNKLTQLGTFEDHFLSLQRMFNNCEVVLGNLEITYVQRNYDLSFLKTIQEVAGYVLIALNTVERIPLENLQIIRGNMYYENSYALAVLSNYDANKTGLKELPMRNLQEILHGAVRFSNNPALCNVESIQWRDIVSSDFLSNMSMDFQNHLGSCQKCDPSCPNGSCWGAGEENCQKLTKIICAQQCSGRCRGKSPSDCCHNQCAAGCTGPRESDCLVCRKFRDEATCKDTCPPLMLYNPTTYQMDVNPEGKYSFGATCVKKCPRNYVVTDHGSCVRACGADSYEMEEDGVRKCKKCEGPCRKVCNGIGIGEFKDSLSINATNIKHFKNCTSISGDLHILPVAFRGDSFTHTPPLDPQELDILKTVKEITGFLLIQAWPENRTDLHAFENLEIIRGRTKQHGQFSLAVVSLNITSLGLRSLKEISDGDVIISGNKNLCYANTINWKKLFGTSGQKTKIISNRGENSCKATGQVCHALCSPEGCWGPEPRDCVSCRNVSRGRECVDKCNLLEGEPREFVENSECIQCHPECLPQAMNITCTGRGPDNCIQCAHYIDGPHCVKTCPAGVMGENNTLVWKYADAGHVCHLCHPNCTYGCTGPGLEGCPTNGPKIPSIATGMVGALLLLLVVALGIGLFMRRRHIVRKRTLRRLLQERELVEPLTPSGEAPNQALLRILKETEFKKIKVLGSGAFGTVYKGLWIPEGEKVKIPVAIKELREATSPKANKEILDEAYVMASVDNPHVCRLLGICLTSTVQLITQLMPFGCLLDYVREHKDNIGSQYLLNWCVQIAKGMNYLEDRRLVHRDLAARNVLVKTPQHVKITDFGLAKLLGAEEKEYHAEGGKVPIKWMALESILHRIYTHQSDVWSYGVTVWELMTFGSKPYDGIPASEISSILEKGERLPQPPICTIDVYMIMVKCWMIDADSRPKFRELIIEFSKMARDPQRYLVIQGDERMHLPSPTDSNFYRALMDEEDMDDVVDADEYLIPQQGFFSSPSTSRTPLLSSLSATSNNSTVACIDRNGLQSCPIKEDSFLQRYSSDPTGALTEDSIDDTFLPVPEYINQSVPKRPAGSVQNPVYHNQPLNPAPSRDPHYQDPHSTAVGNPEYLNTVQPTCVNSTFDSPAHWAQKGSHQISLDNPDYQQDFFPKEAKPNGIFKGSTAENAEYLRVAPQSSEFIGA
T1 sequence (P00533 25-1210 T790M/C797S/L858R): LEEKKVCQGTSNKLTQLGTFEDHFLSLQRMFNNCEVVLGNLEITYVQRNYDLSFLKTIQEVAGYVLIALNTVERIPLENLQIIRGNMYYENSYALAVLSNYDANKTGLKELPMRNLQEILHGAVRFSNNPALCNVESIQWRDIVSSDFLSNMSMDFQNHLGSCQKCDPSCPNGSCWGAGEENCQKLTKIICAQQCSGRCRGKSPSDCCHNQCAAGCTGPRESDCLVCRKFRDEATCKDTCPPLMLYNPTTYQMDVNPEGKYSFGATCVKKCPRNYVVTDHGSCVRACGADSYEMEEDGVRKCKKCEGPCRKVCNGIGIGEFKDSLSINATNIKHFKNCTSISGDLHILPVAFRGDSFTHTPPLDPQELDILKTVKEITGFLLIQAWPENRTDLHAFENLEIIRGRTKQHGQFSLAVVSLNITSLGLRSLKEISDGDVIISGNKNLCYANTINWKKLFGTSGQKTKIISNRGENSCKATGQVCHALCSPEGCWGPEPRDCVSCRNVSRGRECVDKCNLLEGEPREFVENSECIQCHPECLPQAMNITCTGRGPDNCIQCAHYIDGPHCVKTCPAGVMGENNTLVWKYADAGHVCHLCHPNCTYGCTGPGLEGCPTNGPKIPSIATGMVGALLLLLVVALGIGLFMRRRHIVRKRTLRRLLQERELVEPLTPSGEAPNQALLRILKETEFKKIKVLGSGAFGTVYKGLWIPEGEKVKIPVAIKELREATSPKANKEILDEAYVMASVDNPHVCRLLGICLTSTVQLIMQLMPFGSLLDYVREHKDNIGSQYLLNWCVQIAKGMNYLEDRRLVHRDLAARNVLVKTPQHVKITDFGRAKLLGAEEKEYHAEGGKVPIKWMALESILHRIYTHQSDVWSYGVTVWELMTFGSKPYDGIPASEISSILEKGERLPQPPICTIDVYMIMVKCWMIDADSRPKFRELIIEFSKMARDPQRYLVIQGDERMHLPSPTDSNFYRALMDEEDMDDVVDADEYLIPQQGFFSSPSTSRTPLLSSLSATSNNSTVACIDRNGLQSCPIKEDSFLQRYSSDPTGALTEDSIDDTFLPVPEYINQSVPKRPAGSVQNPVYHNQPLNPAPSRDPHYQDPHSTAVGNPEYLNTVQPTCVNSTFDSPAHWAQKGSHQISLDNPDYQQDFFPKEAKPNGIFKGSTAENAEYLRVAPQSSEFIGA
Chain of Ba/F3 De119/T790M/C797S EGFR triple mutant cell line (P00533 with tags, fused parts or gaps DEL746-750/T790M/C797S, form open): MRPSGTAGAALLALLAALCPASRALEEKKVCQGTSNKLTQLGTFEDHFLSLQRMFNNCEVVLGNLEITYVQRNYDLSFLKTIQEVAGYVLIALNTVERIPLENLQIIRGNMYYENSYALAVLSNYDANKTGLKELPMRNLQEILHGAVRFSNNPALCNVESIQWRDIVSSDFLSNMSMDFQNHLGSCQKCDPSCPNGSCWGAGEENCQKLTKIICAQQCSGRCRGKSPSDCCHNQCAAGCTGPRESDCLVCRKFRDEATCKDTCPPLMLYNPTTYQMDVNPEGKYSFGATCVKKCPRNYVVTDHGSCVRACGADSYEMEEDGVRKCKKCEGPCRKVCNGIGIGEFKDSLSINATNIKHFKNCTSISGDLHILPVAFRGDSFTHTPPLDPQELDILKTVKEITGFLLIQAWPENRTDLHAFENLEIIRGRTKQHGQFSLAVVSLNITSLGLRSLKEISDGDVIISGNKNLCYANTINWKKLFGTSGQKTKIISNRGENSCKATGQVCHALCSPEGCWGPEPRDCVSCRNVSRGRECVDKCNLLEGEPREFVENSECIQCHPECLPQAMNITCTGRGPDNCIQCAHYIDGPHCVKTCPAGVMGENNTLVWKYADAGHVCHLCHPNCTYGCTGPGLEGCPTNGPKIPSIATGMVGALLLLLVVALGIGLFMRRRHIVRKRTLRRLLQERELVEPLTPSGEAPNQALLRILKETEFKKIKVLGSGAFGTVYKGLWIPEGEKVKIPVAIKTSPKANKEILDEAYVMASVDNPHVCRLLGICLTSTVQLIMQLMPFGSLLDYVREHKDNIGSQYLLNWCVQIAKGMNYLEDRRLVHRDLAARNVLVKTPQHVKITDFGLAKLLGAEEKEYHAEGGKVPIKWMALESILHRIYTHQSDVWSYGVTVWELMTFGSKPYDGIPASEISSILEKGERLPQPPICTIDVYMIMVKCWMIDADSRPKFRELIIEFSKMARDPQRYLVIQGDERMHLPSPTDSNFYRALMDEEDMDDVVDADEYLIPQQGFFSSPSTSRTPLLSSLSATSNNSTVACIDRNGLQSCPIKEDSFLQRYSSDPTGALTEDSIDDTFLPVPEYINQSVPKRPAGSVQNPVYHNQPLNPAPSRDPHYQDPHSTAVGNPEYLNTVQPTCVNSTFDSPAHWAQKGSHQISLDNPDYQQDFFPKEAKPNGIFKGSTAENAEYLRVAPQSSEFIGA

| SMILES | IC50 [1] | GI50 [2] | IC50 [3] | GI50 [4] | IC50 ([5]; Homo sapiens, A-431, 72 h) | IC50 ([5]; 72 hours) |
| --- | --- | --- | --- | --- | --- | --- |
| COc1cc(N2CCOCC2)c(-c2cnn(C)c2)cc1Nc1ncc(Br)c(Nc2ccccc2P(C)(C)=O)n1 [Compound 2, (2-((5-bromo-2-((2-methoxy-5-(1-methyl-1H-pyrazol-4-yl)-4-morpholinylphenyl)amino)pyrimidin-4-yl)amino)phenyl)dimethylphosphine oxide] | 0.09 nM | 4.21 nM | 18 nM | 17.5 nM | 316 nM | – |
| COc1cc(N2CCN(CCN3CCOCC3)CC2)c(-c2cnn(C)c2)cc1Nc1ncc(Br)c(Nc2ccc3nccnc3c2P(C)(C)=O)n1 [compound 191] | 0.23 nM | 3.47 nM | 2.44 nM | 11.4 nM | 70 nM | – |
| COc1cc(N2CCC3CCN(C)C3C2)c(-c2cnn(C)c2)cc1Nc1ncc(Br)c(Nc2ccc3nccnc3c2P(C)(C)=O)n1 (stereo not shown) [compound 168] | 0.35 nM | 0.71 nM | 2.57 nM | 4.2 nM | 67.4 nM | – |
| COc1cc(N2CCC(N3CCOCC3)C(F)C2)c(-c2cnn(C)c2)cc1Nc1ncc(Br)c(Nc2ccc3nccnc3c2P(C)(C)=O)n1 (stereo not shown) [compound 214] | 0.36 nM | 1.47 nM | 1.86 nM | 4.87 nM | 139 nM | – |
| COc1cc(N2CCC(C)(OC)CC2)c(-c2cnn(C)c2)cc1Nc1ncc(Br)c(Nc2ccccc2P(C)(C)=O)n1 [compound 240] | 0.51 nM | 8.2 nM | 29.9 nM | 19.2 nM | 304 nM | – |
| COc1ccc(-c2cnn(C)c2)cc1Nc1ncc(Br)c(Nc2ccc3nccnc3c2P(C)(C)=O)n1 [compound 5] | 0.03 nM | 3.71 nM | 8.13 nM | 12.7 nM | 140 nM | – |
| COc1cc(N2CC(C)OC(C)C2)c(-c2cnn(C)c2)cc1Nc1ncc(Br)c(Nc2ccc3nccnc3c2P(C)(C)=O)n1 (single isomer, unassigned) [155b] | 0.8 nM | 1.63 nM | 21.6 nM | 7.55 nM | – | 213 nM |
| CN(C)c1c(-c2cnn(C)c2)cc(Nc2ncc(Br)c(Nc3ccc4nccnc4c3P(C)(C)=O)n2)c2c1CCO2 [compound 29] | 0.06 nM | 1.29 nM | 3.37 nM | 4.25 nM | 121 nM | – |
| COc1cc(N2CC[C@@H]3CCN(CC4CC4)[C@@H]3C2)c(-c2cnn(C)c2)cc1Nc1ncc(Br)c(Nc2ccc3nccnc3c2P(C)(C)=O)n1 (single isomer, unassigned) [234b] | 0.37 nM | 2.52 nM | 5.44 nM | 5.65 nM | 38.4 nM | – |
| COCCN(C)c1cc(OC)c(Nc2ncc(Br)c(Nc3ccc4nccnc4c3P(C)(C)=O)n2)cc1-c1cnn(C)c1 [compound 28] | 0.13 nM | 4.73 nM | 15.4 nM | 13.7 nM | 362 nM | – |
| COc1cc(N2CCC(N3CC4(CN(C)C4)C3)CC2)c(-c2cnn(C)c2)cc1Nc1ncc(Br)c(Nc2ccc3nccnc3c2P(C)(C)=O)n1 [compound 172] | 0.14 nM | 102 nM | 0.69 nM | 328 nM | 329 nM | – |
| COCC1CCCN(c2cc(OC)c(Nc3ncc(Br)c(Nc4ccc5nccnc5c4P(C)(C)=O)n3)cc2-c2cnn(C)c2)C1 (stereo not shown) [compound 162] | 2.28 nM | 6.2 nM | 20.6 nM | 18 nM | 518 nM | – |
| COc1cc(N2CCOCC2)c(-c2cnn(C)c2)cc1Nc1nc(Nc2ccccc2P(C)(C)=O)c2ccccc2n1 [compound 3] | 22 nM | 281 nM | 1250 nM | 444 nM | 2240 nM | – |
| COc1cc(N2CCC3(CCN(CC(F)(F)F)CC3)CC2)c(-c2cnn(C)c2)cc1Nc1ncc(Br)c(Nc2ccc3nccnc3c2P(C)(C)=O)n1 [compound 245] | 2.8 nM | 5.35 nM | 105 nM | 11.6 nM | 747 nM | – |
| COc1cc(N2CCN(CCF)CC2)c(-c2cnn(C)c2)cc1Nc1ncc(Br)c(Nc2cc3c(cc2P(C)(C)=O)CC3)n1 [compound 138] | 0.53 nM | 9.31 nM | 30.7 nM | 11.9 nM | 630 nM | – |
| COc1cc(N2CCC3CCN(CC4CC4)C3C2)c(-c2cnn(C)c2)cc1Nc1ncc(Br)c(Nc2ccc3nccnc3c2P(C)(C)=O)n1 (single isomer, unassigned) [234a] | 0.32 nM | 2.05 nM | 5.04 nM | 3.91 nM | 42.4 nM | – |
| COc1cc(N2CCN(C3COC3)CC2)c(-c2cnn(C)c2)cc1Nc1ncc(Br)c(Nc2ccc3nccnc3c2P(C)(C)=O)n1 [compound 150, (6-((5-bromo-2-((2-methoxy-5-(1-methyl-1H-pyrazol-4-yl)-4-(4-(oxetan-3-yl)piperazin-1-yl)phenyl)amino)pyrimidin-4-yl)amino)quinoxalin-5-yl)dimethylphosphine oxide] | 0.29 nM | 1.57 nM | 2.45 nM | 3.34 nM | 139 nM | – |
| COc1cc(N(C)C)c(-c2cnn(C)c2)cc1Nc1ncc(Br)c(Nc2ccc3nccnc3c2P(C)(C)=O)n1 [compound 32] | 0.22 nM | 0.98 nM | 3.07 nM | 5.45 nM | 208 nM | – |
| COc1cc(N2CCN3CCC[C@@H]3C2)c(-c2cnn(C)c2)cc1Nc1ncc(Br)c(Nc2ccc3nccnc3c2P(C)(C)=O)n1 [compound 176] | 0.34 nM | 2.97 nM | 3.26 nM | 5.96 nM | 61.9 nM | – |
| COc1cc(N2CCOCC2)c(-c2cnn(C(F)F)c2)cc1Nc1ncc(Br)c(Nc2ccc3nccnc3c2P(C)(C)=O)n1 [compound 78] | 0.53 nM | 6.76 nM | 45.5 nM | 14.4 nM | 550 nM | – |
| COc1cc(N2CCC3(CC2)CN(C)CC(C)O3)c(-c2cnn(C)c2)cc1Nc1ncc(Br)c(Nc2ccc3nccnc3c2P(C)(C)=O)n1 (racemic) [compound 217, (6-((5-Bromo-2-((4-(2,4-dimethyl-1-oxa-4,9-diazaspiro[5.5]undecan-9-yl)-2-methoxy-5-(1-methyl-1H-pyrazol-4-yl)phenyl)amino)pyrimidin-4-yl)amino)quinoxalin-5-yl)dimethylphosphine oxide] | 0.95 nM | 0.94 nM | 3.87 nM | 3.29 nM | 60.5 nM | – |
| COc1cc(N2CCN(CC3COC3)CC2)c(-c2cnn(C)c2)cc1Nc1ncc(Br)c(Nc2ccc3nccnc3c2P(C)(C)=O)n1 [compound 219, (6-((5-Bromo-2-((2-methoxy-5-(1-methyl-1H-pyrazol-4-yl)-4-(4-(oxetan-3-ylmethyl)piperazin-1-yl)phenyl)amino)pyrimidin-4-yl)amino)quinoxalin-5-yl)dimethylphosphine oxide] | 0.12 nM | 1.1 nM | 1.66 nM | 1.08 nM | 32.1 nM | – |
| COc1cc(N2CCOCC2)c(-c2cnn(C)c2)cc1Nc1ncc(C#N)c(Nc2ccc3nccnc3c2P(C)(C)=O)n1 [Compound 13, 4-((5-(dimethylphosphoryl)quinoxalin-6-yl)amino)-2-((2-methoxy-5-(1-methyl-1H-pyrazol-4-yl)-4-morpholinylphenyl)amino)pyrimidine-5-carbonitrile] | 0.89 nM | 43.4 nM | 7.62 nM | 84.3 nM | 398 nM | – |
| COc1cc(N2CCOC(C)(C)C2)c(-c2cnn(C)c2)cc1Nc1ncc(Br)c(Nc2ccc3nccnc3c2P(C)(C)=O)n1 [compound 120] | 1.17 nM | 2.62 nM | 9.84 nM | 8.67 nM | 197 nM | – |
| [2H]C([2H])([2H])N(c1cc(OC)c(Nc2ncc(C)c(Nc3ccc4nccnc4c3P(C)(C)=O)n2)cc1-c1cnn(C)c1)C([2H])([2H])[2H] [compound 143] | 0.41 nM | 3.23 nM | 1.75 nM | 10.2 nM | 420 nM | – |
| COc1cc(N2C[C@@H](C)O[C@@H](C)C2)c(-c2cnn(C)c2)cc1Nc1ncc(Br)c(Nc2ccc3nccnc3c2P(C)(C)=O)n1 [compound 111] | 1.38 nM | 3.22 nM | 5.65 nM | 4.79 nM | 210 nM | – |
